Laboratory results as given in US20050222271A1, “Novel amorphous form of memantine hydrochloride” (priority 2004, published 2005).

Experiment: Solubility (complete dissolution) of memantine hydrochloride in solvents
Assay type: physicochemical
Experimental: In particular, memantine hydrochloride is soluble in water, allowing the complete dissolution of memantine hydrochloride at room temperature at a concentration of 50 mg per milliliter (ml). The use of a relatively concentrated solution, e.g. about 50 mg per ml is therefore preferred.
In a first step of the distillation process, memantine hydrochloride is preferably dissolved in an […] solvent; more preferably dissolved in a straight or branched chain C1-C4 alcohol solvent, and most preferably dissolved in methanol or ethanol to form a solution. Memantine hydrochloride is soluble in methanol or ethanol, allowing the complete dissolution of memantine hydrochloride at ambient temperature.
(§1) In particular, memantine hydrochloride is soluble in methanol, allowing the complete dissolution of memantine hydrochloride in methanol at ambient temperature with a concentration of 30 mg per milliliter (ml). The use of a relatively concentrated solution, e.g. about 30 mg per ml is therefore preferred for methanol.
as §1, with “ethanol,” for “methanol,”, “ethanol” for “methanol”, “20” for “30”, “ml.” for “milliliter (ml).”, “ethanol.” for “methanol.”

solubility in ethanol (complete dissolution with a concentration of) (ethanol, ambient temperature): ≥ 20 mg per ml
solubility in methanol (complete dissolution with a concentration of) (methanol, ambient temperature): ≥ 30 mg per milliliter (ml)
solubility in water (complete dissolution at a concentration of) (water, room temperature): ≥ 50 mg per milliliter (ml)
Compound: CC12CC3CC(C)(C1)CC(N)(C3)C2.Cl [memantine hydrochloride, 1-amino-3,5-dimethyltricyclo[3,3,1,1^3,7]decane hydrochloride]
